Assay results published in the NIST ThermoML archive (doi:10.1016/j.tca.2017.07.003).
Numbers after ± are expanded uncertainties.

Details: Crystal; DTA

| Normal melting temperature [°C] | Compound |
| --- | --- |
| 229.00 ± 1 | CCCCNC(=O)c1cc(C(=O)NCCCC)cc(C(=O)NCCCC)c1 [N,N',N''-tributyl-1,3,5-benzenetricarboxamide] |
| 300.00 ± 1 | CC(C)CNC(=O)c1cc(C(=O)NCC(C)C)cc(C(=O)NCC(C)C)c1 [N,N',N''-tris(2-methylpropyl)-1,3,5-benzenetricarboxamide] |
| 304.00 ± 1 | CC(C)(C)NC(=O)c1cc(C(=O)NC(C)(C)C)cc(C(=O)NC(C)(C)C)c1 [N,N',N''-tris(tert-butyl)-1,3,5-benzenetricarboxamide] |
